# Laboratory results as given in ChEMBL document CHEMBL1131845, “Naphthazarin derivatives (II): formation of glutathione conjugate, inhibition of DNA topoisomerase-I and cytotoxicity” (Bioorg Med Chem Lett, 1999).
# What was measured:
# L1210 = assay: Cytotoxicity against L1210 cells; assay type: functional; settings: Mus musculus, read-out: ED50 (the source's name)
# [1] = Concentration formed during 5 min incubation of quinone (1 mM) with GSH (5 mM)
Structure (SMILES),Concentration [1],EC50 (L1210)
CCCCC(O)c1cc(OC)c2c(c1OC)C(=O)C=CC2=O (stereo not given),–,0.057 µg/mL
CCCCCCCC(O)C1=CC(=O)c2c(OC)ccc(OC)c2C1=O (stereo not given),0.06 mM,1.04 µg/mL
CCCC(O)c1cc(OC)c2c(c1OC)C(=O)C=CC2=O (stereo not given),–,0.043 µg/mL
COc1ccc(OC)c2c1C(=O)C=C(C(C)O)C2=O (stereo not given),0.125 mM,0.487 µg/mL
CCCCCC(O)C1=CC(=O)c2c(OC)ccc(OC)c2C1=O (stereo not given),0.124 mM,0.378 µg/mL
CCCC(O)C1=CC(=O)c2c(OC)ccc(OC)c2C1=O (stereo not given),0.116 mM,0.409 µg/mL
CCCCCCC(O)C1=CC(=O)c2c(OC)ccc(OC)c2C1=O (stereo not given),0.072 mM,0.732 µg/mL
CCCCC(O)C1=CC(=O)c2c(OC)ccc(OC)c2C1=O (stereo not given),0.131 mM,0.412 µg/mL

# More lines, main results first:
Concentration [1],Structure (SMILES),EC50 (L1210)
0.13 mM,COc1ccc(OC)c2c1C(=O)C=C(CO)C2=O,0.524 µg/mL
0.084 mM,CCC(O)C1=CC(=O)c2c(OC)ccc(OC)c2C1=O (stereo not given),0.516 µg/mL
0.137 mM,CCCCCCCC(O)c1cc(OC)c2c(c1OC)C(=O)C=CC2=O (stereo not given),0.274 µg/mL
0.314 mM,COc1cc(CO)c(OC)c2c1C(=O)C=CC2=O,0.062 µg/mL
0.28 mM,CCCCCC(O)c1cc(OC)c2c(c1OC)C(=O)C=CC2=O (stereo not given),0.066 µg/mL
0.304 mM,COc1cc(C(C)O)c(OC)c2c1C(=O)C=CC2=O (stereo not given),0.132 µg/mL
0.295 mM,CCC(O)c1cc(OC)c2c(c1OC)C(=O)C=CC2=O (stereo not given),0.085 µg/mL
0.182 mM,CCCCCCC(O)c1cc(OC)c2c(c1OC)C(=O)C=CC2=O (stereo not given),0.22 µg/mL
